Results on twelve compounds are retold here after publication PMC6044503 (ACS Omega, 2017).

In assay [1] the target is T1, human Y2R (Homo sapiens, UniProt P49146).
T1 sequence (P49146 1-381): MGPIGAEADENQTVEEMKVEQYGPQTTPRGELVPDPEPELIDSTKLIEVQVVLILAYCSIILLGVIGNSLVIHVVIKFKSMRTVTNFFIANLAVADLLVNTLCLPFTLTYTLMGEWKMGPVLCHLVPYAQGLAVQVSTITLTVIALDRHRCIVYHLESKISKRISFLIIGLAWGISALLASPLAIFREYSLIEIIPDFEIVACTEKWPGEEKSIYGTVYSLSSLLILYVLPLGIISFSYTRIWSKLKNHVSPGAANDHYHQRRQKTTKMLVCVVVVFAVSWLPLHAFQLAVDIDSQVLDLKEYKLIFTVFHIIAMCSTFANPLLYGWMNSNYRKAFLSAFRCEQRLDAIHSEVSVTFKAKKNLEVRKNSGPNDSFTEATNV
In words: biochemical. It counts as binding.

In assay [2] the target is T1, human Y2R. In words: biochemical. In kind it is biochemical.
The next assay relates to male C57BL/6J mice. In words: Food intake assay, bolus ip administration in lean mice. In kind it is in vivo, mouse. The following applies: for % food intake inhibition: vs saline; for % food intake inhibition / % food intake inhibition (cumulative): mean ± SD; for minimum effective dose (food intake reduction): ip administration, lean mice.
[3] abbreviates: bolus ip 500 nmol/kg, 3 h after administration.

SMILES strings stand for the structures. “And” between values parts separate entries of the source, which are not always exact repeats. Identical values can stand only once. Where a SMILES comes first, the peptide text is derived from it. [ ]: non-standard residue; d: D form. The star is where a group is joined. 1Nal = N[C@@H](Cc1cccc2ccccc12)C(=O)O; 2Nal = N[C@@H](Cc1ccc2ccccc2c1)C(=O)O; Cyclohexanecarbonyl = O=C(C1CCCCC1)*; 1Naphthoyl = O=C(c1cccc2ccccc12)*; 2Naphthoyl = O=C(c1ccc2ccccc2c1)*; Cha = N[C@@H](CC1CCCCC1)C(=O)O; 4Amb = NCc1ccc(C(=O)O)cc1; Aib = CC(C)(N)C(=O)O; Bz = O=C(c1ccccc1)*

As to `CC(C)C[C@H](NC(=O)[C@H](CC(N)=O)NC(=O)[C@H](CC1CCCCC1)NC(=O)[C@H](CC1CCCCC1)NC(=O)[C@H](Cc1c[nH]cn1)NC(=O)[C@H](CCCNC(=N)N)NC(=O)c1ccccc1)C(=O)NC(C)(C)C(=O)N[C@H](C(=O)N[C@@H](CCCNC(=N)N)C(=O)N[C@@H](CCC(N)=O)C(=O)N[C@@H](CCCNC(=N)N)C(=O)N[C@@H](CC1CCCCC1)C(N)=O)[C@@H](C)O` [Compound 21, benzoyl-[Cha^27,28,36,Aib^31]PYY(25–36)] (Bz-RH[Cha][Cha]NL[Aib]TRQR[Cha]-NH2), at human Y2R [1], the “binding affinity, fold lower than that of PYY3–36” value was “more than 10 fold”. In addition, the “agonist activity, fold lower than that of PYY3–36” value at human Y2R [2] is listed as “more than 10 fold”. Also, the “% food intake inhibition” value was 32 ± 3% in the assay on male C57BL/6J mice (bolus ip 250 nmol/kg, 3 h after administration); 49% and 49 ± 4% in the assay on male C57BL/6J mice (setting [3]). Further, the “% food intake inhibition (cumulative)” value in the assay on male C57BL/6J mice (ip 3 nmol/kg, 3 h after administration) was “–1 ± 6%”; with male C57BL/6J mice (ip 3 nmol/kg, 6 h after administration) it was “–1 ± 2%”; in the assay with male C57BL/6J mice (ip 3 nmol/kg, 24 h after administration), “–7 ± 5%”; in the assay on male C57BL/6J mice (ip 30 nmol/kg, 3 h after administration), 20 ± 6%; in the assay with male C57BL/6J mice (ip 30 nmol/kg, 6 h after administration), 18 ± 3%; in the assay with male C57BL/6J mice (ip 30 nmol/kg, 24 h after administration), “–2 ± 3%”. Further, the “% food intake inhibition (cumulative)” value was 47 ± 3% with male C57BL/6J mice (ip 300 nmol/kg, 3 h after administration); 45 ± 2% with male C57BL/6J mice (ip 300 nmol/kg, 6 h after administration); 8 ± 3% in the assay on male C57BL/6J mice (ip 300 nmol/kg, 24 h after administration). Besides, the “minimum effective dose (food intake reduction)” value in the assay on male C57BL/6J mice (food intake 3 and 6 h after dosing) is 30 nmol/kg; in the assay with male C57BL/6J mice (mass equivalent of 30 nmol/kg), “ca. 52 μg/kg”.
`CC(C)C[C@H](NC(=O)[C@H](CC(N)=O)NC(=O)[C@H](CC1CCCCC1)NC(=O)[C@H](CC1CCCCC1)NC(=O)[C@H](Cc1c[nH]cn1)NC(=O)[C@H](CCCNC(=N)N)NC(=O)c1cccc2ccccc12)C(=O)NC(C)(C)C(=O)N[C@H](C(=O)N[C@@H](CCCNC(=N)N)C(=O)N[C@@H](CCC(N)=O)C(=O)N[C@@H](CCCNC(=N)N)C(=O)N[C@@H](CC1CCCCC1)C(N)=O)[C@@H](C)O` [Compound 25] (1Naphthoyl-RH[Cha][Cha]NL[Aib]TRQR[Cha]-NH2) showed an IC50 at human Y2R [1] of 18 nM. This compound also yielded an EC50 at human Y2R [2] of 5.8 nM.
The compound `CC(C)C[C@H](NC(=O)[C@H](CC(N)=O)NC(=O)[C@H](CC1CCCCC1)NC(=O)[C@H](Cc1ccc2ccccc2c1)NC(=O)[C@H](Cc1c[nH]cn1)NC(=O)[C@H](CCCNC(=N)N)NC(=O)C1CCCCC1)C(=O)NC(C)(C)C(=O)N[C@H](C(=O)N[C@@H](CCCNC(=N)N)C(=O)N[C@@H](CCC(N)=O)C(=O)N[C@@H](CCCNC(=N)N)C(=O)N[C@@H](CC1CCCCC1)C(N)=O)[C@@H](C)O` [Compound 29] (Cyclohexanecarbonyl-RH[2Nal][Cha]NL[Aib]TRQR[Cha]-NH2) had an IC50 at human Y2R [1] of 18 nM. At human Y2R [2], this compound had an EC50 of 14 nM. In addition, the “% food intake inhibition” value with male C57BL/6J mice (setting [3]) worked out at 28 ± 8%.
The corresponding values for `CC(C)C[C@H](NC(=O)[C@H](CC(N)=O)NC(=O)[C@H](CC1CCCCC1)NC(=O)[C@H](CC1CCCCC1)NC(=O)[C@H](Cc1c[nH]cn1)NC(=O)[C@H](CCCNC(=N)N)NC(=O)C1CCCCC1)C(=O)NC(C)(C)C(=O)N[C@H](C(=O)N[C@@H](CCCNC(=N)N)C(=O)N[C@@H](CCC(N)=O)C(=O)N[C@@H](CCCNC(=N)N)C(=O)N[C@@H](CC1CCCCC1)C(N)=O)[C@@H](C)O` [Compound 22] (Cyclohexanecarbonyl-RH[Cha][Cha]NL[Aib]TRQR[Cha]-NH2) are 11 nM, 4 nM and 25 ± 7%.
Regarding `CC(C)C[C@H](NC(=O)[C@H](CC(N)=O)NC(=O)[C@H](Cc1c[nH]c2ccccc12)NC(=O)[C@H](CC1CCCCC1)NC(=O)[C@H](Cc1c[nH]cn1)NC(=O)[C@H](CCCNC(=N)N)NC(=O)c1ccccc1)C(=O)NC(C)(C)C(=O)N[C@H](C(=O)N[C@@H](CCCNC(=N)N)C(=O)N[C@@H](CCC(N)=O)C(=O)N[C@@H](CCCNC(=N)N)C(=O)N[C@@H](CC1CCCCC1)C(N)=O)[C@@H](C)O` [Compound 18] (Bz-RH[Cha]WNL[Aib]TRQR[Cha]-NH2), the IC50 at human Y2R [1] was 6.4 nM. Moreover, the 50% effective concentration (EC50) on human Y2R [2] was found to be 1.6 nM. Also, the “% food intake inhibition” value in the assay on male C57BL/6J mice (setting [3]) is 2 ± 8%.
The corresponding values for `C[C@@H](O)[C@H](NC(=O)C(C)(C)NC(=O)[C@H](Cc1c[nH]c2ccccc12)NC(=O)[C@H](CC(N)=O)NC(=O)[C@H](CC1CCCCC1)NC(=O)[C@H](CC1CCCCC1)NC(=O)[C@H](Cc1c[nH]cn1)NC(=O)[C@H](CCCNC(=N)N)NC(=O)C1CCCCC1)C(=O)N[C@@H](CCCNC(=N)N)C(=O)N[C@@H](CCC(N)=O)C(=O)N[C@@H](CCCNC(=N)N)C(=O)N[C@@H](CC1CCCCC1)C(N)=O` [Compound 27] (Cyclohexanecarbonyl-RH[Cha][Cha]NW[Aib]TRQR[Cha]-NH2) are 8.9 nM, 2.2 nM and 12 ± 8%.
Regarding `CC[C@H](C)[C@H](NC(=O)[C@H](CC1CCCCC1)NC(=O)[C@H](Cc1c[nH]cn1)NC(=O)[C@H](CCCNC(=N)N)NC(=O)c1ccccc1)C(=O)N[C@@H](CC(N)=O)C(=O)N[C@@H](CC(C)C)C(=O)N[C@@H](CCCCN)C(=O)N[C@H](C(=O)N[C@@H](CCCNC(=N)N)C(=O)N[C@@H](CCC(N)=O)C(=O)N[C@@H](CCCNC(=N)N)C(=O)N[C@@H](CC1CCCCC1)C(N)=O)[C@@H](C)O` [Compound 9] (Bz-RH[Cha]INLKTRQR[Cha]-NH2), on human Y2R [1], 1.6 nM corresponded to half-maximal inhibition (IC50). On human Y2R [2], this compound displayed an EC50 of 0.62 nM. The “agonist activity, fold increase compared to that of 4” value on human Y2R [2] (relative to compound 4) is on record as “more than 4 fold”. Also, the “% food intake inhibition” value in the assay on male C57BL/6J mice (bolus ip 1000 nmol/kg, 3 h after administration) is recorded as “–15 ± 7%”.
As for `CC(C)C[C@H](NC(=O)[C@H](CC(N)=O)NC(=O)[C@H](CC1CCCCC1)NC(=O)[C@H](CC1CCCCC1)NC(=O)[C@H](Cc1c[nH]cn1)NC(=O)[C@H](CCCNC(=N)N)NC(=O)c1ccc2ccccc2c1)C(=O)NC(C)(C)C(=O)N[C@H](C(=O)N[C@@H](CCCNC(=N)N)C(=O)N[C@@H](CCC(N)=O)C(=O)N[C@@H](CCCNC(=N)N)C(=O)N[C@@H](CC1CCCCC1)C(N)=O)[C@@H](C)O` [Compound 26] (2Naphthoyl-RH[Cha][Cha]NL[Aib]TRQR[Cha]-NH2), on human Y2R [1], the IC50 was 26 nM. This compound gave an EC50 on human Y2R [2] of 6 nM.
`CC(C)C[C@H](NC(=O)[C@H](CC(N)=O)NC(=O)[C@H](CC1CCCCC1)NC(=O)[C@H](CC1CCCCC1)NC(=O)[C@H](Cc1cnc[nH]1)NC(=O)[C@H](CCCNC(=N)N)NC(=O)c1ccc(CN)cc1)C(=O)NC(C)(C)C(=O)N[C@H](C(=O)N[C@@H](CCCNC(=N)N)C(=O)N[C@@H](CCC(N)=O)C(=O)N[C@@H](CCCNC(=N)N)C(=O)N[C@@H](CC1CCCCC1)C(N)=O)[C@@H](C)O` [Compound 24] (H-[4Amb]RH[Cha][Cha]NL[Aib]TRQR[Cha]-NH2) registered an IC50 against human Y2R [1] of 0.65 nM. The midpoint of the response at human Y2R [2], the EC50, lay at 0.48 nM. Besides, in the assay with male C57BL/6J mice (setting [3]), the “% food intake inhibition” value is 29 ± 7%.
For `CC(C)C[C@H](NC(=O)[C@H](CC(N)=O)NC(=O)[C@H](Cc1cccc2ccccc12)NC(=O)[C@H](CC1CCCCC1)NC(=O)[C@H](Cc1c[nH]cn1)NC(=O)[C@H](CCCNC(=N)N)NC(=O)c1ccccc1)C(=O)NC(C)(C)C(=O)N[C@H](C(=O)N[C@@H](CCCNC(=N)N)C(=O)N[C@@H](CCC(N)=O)C(=O)N[C@@H](CCCNC(=N)N)C(=O)N[C@@H](CC1CCCCC1)C(N)=O)[C@@H](C)O` [Compound 19] (Bz-RH[Cha][1Nal]NL[Aib]TRQR[Cha]-NH2), in that order: 9.1 nM, 2.7 nM and 41 ± 5%.
`CC[C@H](C)[C@H](NC(=O)[C@H](CC1CCCCC1)NC(=O)[C@H](Cc1c[nH]cn1)NC(=O)[C@H](CCCNC(=N)N)NC(=O)C1CCCCC1)C(=O)N[C@@H](CC(N)=O)C(=O)N[C@@H](CC(C)C)C(=O)NC(C)(C)C(=O)N[C@H](C(=O)N[C@@H](CCCNC(=N)N)C(=O)N[C@@H](CCC(N)=O)C(=O)N[C@@H](CCCNC(=N)N)C(=O)N[C@@H](CC1CCCCC1)C(N)=O)[C@@H](C)O` [Compound 16] (Cyclohexanecarbonyl-RH[Cha]INL[Aib]TRQR[Cha]-NH2): the IC50 against human Y2R [1] is 4.9 nM. Moreover, at human Y2R [2], the EC50 was found to be 1.6 nM. Also, in the assay on male C57BL/6J mice (setting [3]), the “% food intake inhibition” value was determined as 5 ± 13%.
For `CC[C@H](C)[C@H](NC(=O)[C@H](CC1CCCCC1)NC(=O)[C@H](Cc1c[nH]cn1)NC(=O)[C@H](CCCNC(=N)N)NC(=O)C1CCCCC1)C(=O)N[C@@H](CC(N)=O)C(=O)N[C@@H](Cc1c[nH]c2ccccc12)C(=O)NC(C)(C)C(=O)N[C@H](C(=O)N[C@@H](CCCNC(=N)N)C(=O)N[C@@H](CCC(N)=O)C(=O)N[C@@H](CCCNC(=N)N)C(=O)N[C@@H](CC1CCCCC1)C(N)=O)[C@@H](C)O` [Compound 17] (Cyclohexanecarbonyl-RH[Cha]INW[Aib]TRQR[Cha]-NH2), in that order: 5.7 nM, 1.9 nM and 24 ± 5%.
